How the values were obtained:
[1] = tested on: PMPMEase; details: cited from earlier work; for concentrations that inhibit PMPMEase: concentration range given in words only
[2] = tested on: PMPMEase; assay: Inhibition of PMPMEase by drugs, curcumin, fatty acids and prostaglandins; format: biochemical; details: relative to arachidonic acid (AA)

Structure (SMILES) | concentrations that inhibit PMPMEase [1] | other results
O=P1(N(CCCl)CCCl)NCCCO1 (stereo not drawn) [cyclophosphamide] | millimolar concentrations | –
CCCCC/C=C\C/C=C\C/C=C\C/C=C\CCCC(=O)O [arachidonic acid] | micromolar concentrations | –
COc1cc(/C=C/C(=O)CC(=O)/C=C/c2ccc(O)c(OC)c2)ccc1O [curcumin] | micromolar concentrations | –
CCCCC[C@H](O)/C=C/[C@H]1C=CC(=O)[C@@H]1C/C=C\CCCC(=O)O [Prostaglandin (PG) A2] | – | fold less potent than AA as PMPMEase inhibitor [2]: 63 fold
CC/C(=C(\c1ccccc1)c1ccc(OCCN(C)C)cc1)c1ccccc1 [tamoxifen] | millimolar concentrations | –
CCCCC[C@H](O)/C=C/[C@H]1[C@H](O)CC(=O)[C@@H]1C/C=C\CCCC(=O)O [PGE2] | – | inhibition of PMPMEase at 1 mM ([1]; 1 mM): did not inhibit
